From ChEMBL document CHEMBL4145504, “Jatrophane diterpenoids from Euphorbia sororia as potent modulators against P-glycoprotein-based multidrug resistance” (Eur J Med Chem, 2018) come the findings set out here.

Usually IC50 stands for the concentration that inhibits the measured activity by half. By Ki is commonly meant the equilibrium dissociation constant of an inhibitor or competing ligand from its target. As a reminder, the EC50 is the concentration that produces a half-maximal response.

Molecules are shown by their SMILES. Calls of active or inactive are those of the source. The rule behind the calls is not given here.

Data set [1] has as its system NCI/ADR-RES. The data set is described as follows: Inhibition of P-gp expression in human MCF7/ADR cells at 5 to 10 uM after 48 hrs by Western blot analysis. The format is functional, cell-based. Background: Immunoblotting shows a protein as a band on a membrane.
Data set [2] is filed under the species Homo sapiens. The data set is described as follows: Inhibition of P-gp in human MCF7/ADR cells assessed as potentiation of docetaxel-induced cytotoxicity at 10 uM after 48 hrs by MTT assay relative to control. The class given is cell-based. (In general: Tetrazolium assays rely on reduction of a dye to a coloured formazan, in cell work by metabolically active cells.)

The species entered for data set [3] is Homo sapiens. Briefly: Inhibition of P-gp in human MCF7/ADR cells assessed as concentration required to restore doxorubicin accumulation in cells after 150 mins by fluorescence assay relative to MCF7 cells. The class given is cell-based.
For data set [4], the species on record is Homo sapiens. Briefly: Inhibition of P-gp in human MCF7/ADR cells assessed as potentiation of doxorubicin-induced cytotoxicity at 10 uM after 48 hrs by MTT assay relative to control. The class given is cell-based.
In data set [5] the test system is NCI/ADR-RES. The data set is described as follows: Cytotoxicity against human MCF7/ADR cells after 48 hrs by MTT assay. The format is cell-based.
For data set [6], the species on record is Homo sapiens. The data set is described as follows: Stimulation of human Pgp ATPase activity expressed in cell membranes at 2.5 uM after 1 hr by P-gp Glo assay relative to control.
Data set [7] is filed under the species Homo sapiens. Briefly: Inhibition of P-gp in human MCF7/ADR cells assessed as potentiation of doxorubicin-induced cytotoxicity at 1 uM preincubated with cells followed by compound washout and subsequent incubation for 6 hrs prior to addition of doxorubicin and measured after 48 hrs by MTT assay relative to control. The format is cell-based.
A short description of data set [8]: Competitive inhibition of P-gp in human MCF7/ADR cells after 150 mins in presence of doxorubicin by Dixon plot analysis. The format is cell-based.
Data set [9] can be described thus: Cytotoxicity against human MCF7/ADR cells assessed as cell survival at 10 uM after 48 hrs by MTT assay relative to control. The class given is cell-based. The conditions noted are these: MCF7/ADR cells (NCI/ADR-RES), read-out: Survival.
The species entered for data set [10] is Homo sapiens. The data set is described as follows: Stimulation of human Pgp ATPase activity expressed in cell membranes at 50 uM after 1 hr by P-gp Glo assay relative to control.
Data set [11] can be described thus: Cytotoxicity against human MCF7 cells assessed as cell survival at 10 uM after 48 hrs by MTT assay relative to control. The format is cell-based. The conditions noted are these: read-out: Survival.
Data set [12] can be described thus: Competitive inhibition of P-gp in human MCF7/ADR cells after 150 mins in presence of doxorubicin by Lineweaver-Burk plot analysis. The class given is cell-based.
The subject of another data set is MCF7. Briefly: Cytotoxicity against human MCF7 cells after 48 hrs by MTT assay. The class given is cell-based. The conditions noted are these: MCF7, 48 h.
Data set [13] is filed under the species Homo sapiens. Briefly: Inhibition of P-gp in human MCF7/ADR cells assessed as increase in doxorubicin accumulation in cells after 150 mins by fluorescence assay. The class given is cell-based.
The species named for data set [14] is Homo sapiens. Briefly: Inhibition of P-gp mediated efflux in human MCF7/ADR cells after 4 hrs by Rh123 dye-based flow cytometric method. The class given is cell-based. Background: Flow cytometry measures light scatter and fluorescence of single cells or particles in a stream.
The species named for data set [15] is Homo sapiens. Briefly: Inhibition of P-gp in human MCF7/ADR cells assessed as potentiation of vincristine-induced cytotoxicity at 10 uM after 48 hrs by MTT assay relative to control. The class given is cell-based.
A short description of data set [16]: Inhibition of P-gp in human MCF7/ADR cells assessed as potentiation of doxorubicin-induced cytotoxicity after 48 hrs by MTT assay. The class given is cell-based. The conditions noted are these: NCI/ADR-RES.
A further data set relates to HEK293. The data set is described as follows: Cytotoxicity against HEK293 cells after 48 hrs by MTT assay. The format is cell-based. The conditions noted are these: Homo sapiens, HEK293, 48 h.
For a further data set, the system named is P-gp. The data set is described as follows: Therapeutic index, ratio of IC50 for HEK293 cells to EC50 for inhibition of P-gp in human MCF7/ADR cells assessed as potentiation of doxorubicin-induced cytotoxicity. The format is toxicity, cell-based. The conditions noted are these: HEK293 cells (IC50) and MCF7/ADR cells (EC50).
Data set [17] is filed under the species Homo sapiens. Briefly: Inhibition of P-gp in human MCF7/ADR cells assessed as increase in doxorubicin accumulation in cells up to 20 uM after 150 mins by fluorescence assay relative to control. The format is cell-based.

`C=C1[C@H](OC(=O)C(C)C)[C@@H](OC(C)=O)[C@@H](OC(C)=O)C(C)(C)/C=C/[C@H](C)[C@H](OC(=O)c2ccccc2)[C@@]2(O)C[C@@](C)(OC(C)=O)[C@H](OC(C)=O)[C@@H]2[C@H]1OC(=O)C(C)CC` (some centres not stated): the inhibition result with NCI/ADR-RES [1] was “inactive”. The fold change (FC) in the data set filed under Homo sapiens [2] was 3.42; in the data set filed under Homo sapiens [4], 36.8; in the data set listed under Homo sapiens [6], 1.34; in the data set filed under Homo sapiens [7], 1.43; in the data set filed under Homo sapiens [10] it was 2.22; in the data set listed under Homo sapiens [15], 2.17. In addition, the fold change (FC) in the data set filed under Homo sapiens [17] was 2.15. In addition, the Activity in the data set listed under Homo sapiens [3] stood at 10 µM. Moreover, the half-maximal inhibitory concentration (IC50) with NCI/ADR-RES [5] was over 100000 nM; in the data set on MCF7, over 100000 nM; in the data set on HEK293 it was 98200 nM. Also, the Ki came out at 500 nM in data set [8] and 490 nM in data set [12]. Further, the viability at 48 h, 10 µM in [9] turned out to be 91.8%; in [11], 91.4%. Moreover, the inhibition result in the data set filed under Homo sapiens [13] and in the data set filed under Homo sapiens [14] was “Dose-dependent effect” in each case. In addition, the concentration giving a half-maximal response (EC50) in [16] came to 92.7 nM. Besides, the selectivity ratio in the data set on P-gp was found to be 1060.
On to `COc1ccc(CCN(C)CCCC(C#N)(c2ccc(OC)c(OC)c2)C(C)C)cc1OC` (configuration not stated), for which the Activity in the data set listed under Homo sapiens [3] came out at 40 µM. For the same compound, the Ki came out at 2920 nM in data set [8] and 2880 nM in data set [12]. For the same compound, the viability at 48 h, 10 µM in data set [9] was found to be 90.2%; in data set [11], 83.4%. Further, 48900 nM corresponded to half-maximal inhibition in the data set on MCF7 (IC50). The inhibition entry in the data set listed under Homo sapiens [13] is “Dose-dependent effect”.
